Experimental findings from the supplement of paper PMC10307832 are described below.

The first test has as its system LU99A. The experiment in a line: relative viability (nuclei count vs DMSO), 5 days (fraction); higher = more cells survive. Conditions: first compound 0.6325 µM. The method, boiled down: (§1)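 Lung cancer cell lines in 1536-well plates were dosed by pin tool the day after seeding, either with one drug alone or with a fixed anchor-drug dose plus five library-drug doses (not always all listed) in √10 steps. After 5 days, cells were fixed and their nuclei stained in one step (final 0.05% Triton X-100, 1% formaldehyde, 1 ug/ml Hoechst), then counted on 4× images. Relative viability is the nuclei count in treated wells divided by that in vehicle wells. Values are medians of duplicate plates.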
Turning to `COCC1(CO)C(=O)C2CCN1CC2` (configuration not stated) [PRIMA-1MET] + C[C@@H](Oc1cc(-c2cnn(C3CCNCC3)c2)cnc1N)c1c(Cl)ccc(F)c1Cl [Crizotinib] (partner 1 µM), the relative viability was 0.475.

The test is the same for the next values; noted with them: first compound 2 µM.
In turn, `COCC1(CO)C(=O)C2CCN1CC2` (configuration not stated) [PRIMA-1MET] + O=C(CCCCCCC(=O)Nc1ccccc1)NO [Vorinostat] (partner 1 µM) had a relative viability of 0.54.

For `COCC1(CO)C(=O)C2CCN1CC2` (configuration not stated) [PRIMA-1MET] + C[C@]1(O)C[C@@H](c2nc(-c3ccc4ccc(-c5ccccc5)nc4c3)c3c(N)nccn32)C1 [Linsitinib] (partner 1 µM), the relative viability turned out to be 0.567.

Consider `COCC1(CO)C(=O)C2CCN1CC2` (configuration not stated) [PRIMA-1MET] + Cc1cc(Nc2cc(N3CCN(C)CC3)nc(Sc3ccc(NC(=O)C4CC4)cc3)n2)n[nH]1 [Tozasertib] (partner 0.1 µM), for which the relative viability was determined as 0.277.

In turn, `COCC1(CO)C(=O)C2CCN1CC2` (configuration not stated) [PRIMA-1MET] + Cc1nc(NC(=O)N2CCC[C@H]2C(N)=O)sc1-c1ccnc(C(C)(C)C(F)(F)F)c1 [Alpelisib] (partner 2 µM) displayed a relative viability of 0.488.

On to `COCC1(CO)C(=O)C2CCN1CC2` (configuration not stated) [PRIMA-1MET] + C[C@@H](Oc1cc(-c2cnn(C3CCNCC3)c2)cnc1N)c1c(Cl)ccc(F)c1Cl [Crizotinib] (partner 1 µM), for which the relative viability stood at 0.576.

The same test, now with this note: first compound 6.325 µM.
In the case of `COCC1(CO)C(=O)C2CCN1CC2` (configuration not stated) [PRIMA-1MET] + O=C(CCCCCCC(=O)Nc1ccccc1)NO [Vorinostat] (partner 1 µM), the relative viability turned out to be 0.436.

`COCC1(CO)C(=O)C2CCN1CC2` (configuration not stated) [PRIMA-1MET] + C[C@]1(O)C[C@@H](c2nc(-c3ccc4ccc(-c5ccccc5)nc4c3)c3c(N)nccn32)C1 [Linsitinib] (partner 1 µM) yielded a relative viability of 0.526.

In turn, `COCC1(CO)C(=O)C2CCN1CC2` (configuration not stated) [PRIMA-1MET] + Cc1cc(Nc2cc(N3CCN(C)CC3)nc(Sc3ccc(NC(=O)C4CC4)cc3)n2)n[nH]1 [Tozasertib] (partner 0.1 µM) came in with a relative viability of 0.284.

In turn, `COCC1(CO)C(=O)C2CCN1CC2` (configuration not stated) [PRIMA-1MET] + Cc1nc(NC(=O)N2CCC[C@H]2C(N)=O)sc1-c1ccnc(C(C)(C)C(F)(F)F)c1 [Alpelisib] (partner 2 µM) yielded a relative viability of 0.293.

With `COCC1(CO)C(=O)C2CCN1CC2` (configuration not stated) [PRIMA-1MET] + C[C@@H](Oc1cc(-c2cnn(C3CCNCC3)c2)cnc1N)c1c(Cl)ccc(F)c1Cl [Crizotinib] (partner 1 µM), the relative viability came out at 0.501.

Staying with this test, now noted: first compound 20 µM.
`COCC1(CO)C(=O)C2CCN1CC2` (configuration not stated) [PRIMA-1MET] + O=C(CCCCCCC(=O)Nc1ccccc1)NO [Vorinostat] (partner 1 µM) had a relative viability of 0.113.

In turn, `COCC1(CO)C(=O)C2CCN1CC2` (configuration not stated) [PRIMA-1MET] + C[C@]1(O)C[C@@H](c2nc(-c3ccc4ccc(-c5ccccc5)nc4c3)c3c(N)nccn32)C1 [Linsitinib] (partner 1 µM) yielded a relative viability of 0.189.

Regarding `COCC1(CO)C(=O)C2CCN1CC2` (configuration not stated) [PRIMA-1MET] + Cc1cc(Nc2cc(N3CCN(C)CC3)nc(Sc3ccc(NC(=O)C4CC4)cc3)n2)n[nH]1 [Tozasertib] (partner 0.1 µM), the relative viability was 0.0311.

`COCC1(CO)C(=O)C2CCN1CC2` (configuration not stated) [PRIMA-1MET] + Cc1nc(NC(=O)N2CCC[C@H]2C(N)=O)sc1-c1ccnc(C(C)(C)C(F)(F)F)c1 [Alpelisib] (partner 2 µM): the relative viability amounted to 0.0448.

Regarding `COCC1(CO)C(=O)C2CCN1CC2` (configuration not stated) [PRIMA-1MET] + C[C@@H](Oc1cc(-c2cnn(C3CCNCC3)c2)cnc1N)c1c(Cl)ccc(F)c1Cl [Crizotinib] (partner 1 µM), the relative viability was determined as 0.0737.

The next test relates to NCI-H1651. The test is described as above. The note with it: first compound 0.2 µM. In short, it runs like this:
as §1
As to `COCC1(CO)C(=O)C2CCN1CC2` (configuration not stated) [PRIMA-1MET] + O=C(CCCCCCC(=O)Nc1ccccc1)NO [Vorinostat] (partner 1 µM), the relative viability is 0.563.

On to `COCC1(CO)C(=O)C2CCN1CC2` (configuration not stated) [PRIMA-1MET] + C[C@]1(O)C[C@@H](c2nc(-c3ccc4ccc(-c5ccccc5)nc4c3)c3c(N)nccn32)C1 [Linsitinib] (partner 1 µM), for which the relative viability turned out to be 1.13.

Take `COCC1(CO)C(=O)C2CCN1CC2` (configuration not stated) [PRIMA-1MET] + Cc1cc(Nc2cc(N3CCN(C)CC3)nc(Sc3ccc(NC(=O)C4CC4)cc3)n2)n[nH]1 [Tozasertib] (partner 0.1 µM): the relative viability stood at 0.848.

`COCC1(CO)C(=O)C2CCN1CC2` (configuration not stated) [PRIMA-1MET] + Cc1nc(NC(=O)N2CCC[C@H]2C(N)=O)sc1-c1ccnc(C(C)(C)C(F)(F)F)c1 [Alpelisib] (partner 2 µM) had a relative viability of 0.904.

In turn, `COCC1(CO)C(=O)C2CCN1CC2` (configuration not stated) [PRIMA-1MET] + C[C@@H](Oc1cc(-c2cnn(C3CCNCC3)c2)cnc1N)c1c(Cl)ccc(F)c1Cl [Crizotinib] (partner 1 µM) displayed a relative viability of 0.991.

Still in this test, the particulars now being: first compound 0.6325 µM.
For the compound `COCC1(CO)C(=O)C2CCN1CC2` (configuration not stated) [PRIMA-1MET] + O=C(CCCCCCC(=O)Nc1ccccc1)NO [Vorinostat] (partner 1 µM), the relative viability was 0.188.

`COCC1(CO)C(=O)C2CCN1CC2` (configuration not stated) [PRIMA-1MET] + C[C@]1(O)C[C@@H](c2nc(-c3ccc4ccc(-c5ccccc5)nc4c3)c3c(N)nccn32)C1 [Linsitinib] (partner 1 µM) returned a relative viability of 0.981.

With `COCC1(CO)C(=O)C2CCN1CC2` (configuration not stated) [PRIMA-1MET] + Cc1cc(Nc2cc(N3CCN(C)CC3)nc(Sc3ccc(NC(=O)C4CC4)cc3)n2)n[nH]1 [Tozasertib] (partner 0.1 µM), the relative viability came out at 0.66.

Turning to `COCC1(CO)C(=O)C2CCN1CC2` (configuration not stated) [PRIMA-1MET] + Cc1nc(NC(=O)N2CCC[C@H]2C(N)=O)sc1-c1ccnc(C(C)(C)C(F)(F)F)c1 [Alpelisib] (partner 2 µM), the relative viability is 0.981.

On to `COCC1(CO)C(=O)C2CCN1CC2` (configuration not stated) [PRIMA-1MET] + C[C@@H](Oc1cc(-c2cnn(C3CCNCC3)c2)cnc1N)c1c(Cl)ccc(F)c1Cl [Crizotinib] (partner 1 µM), for which the relative viability was found to be 0.788.

The same test, now with this note: first compound 2 µM.
Take `COCC1(CO)C(=O)C2CCN1CC2` (configuration not stated) [PRIMA-1MET] + O=C(CCCCCCC(=O)Nc1ccccc1)NO [Vorinostat] (partner 1 µM): the relative viability was 0.458.

Consider `COCC1(CO)C(=O)C2CCN1CC2` (configuration not stated) [PRIMA-1MET] + C[C@]1(O)C[C@@H](c2nc(-c3ccc4ccc(-c5ccccc5)nc4c3)c3c(N)nccn32)C1 [Linsitinib] (partner 1 µM), for which the relative viability was 0.907.

In turn, `COCC1(CO)C(=O)C2CCN1CC2` (configuration not stated) [PRIMA-1MET] + Cc1cc(Nc2cc(N3CCN(C)CC3)nc(Sc3ccc(NC(=O)C4CC4)cc3)n2)n[nH]1 [Tozasertib] (partner 0.1 µM) registered a relative viability of 0.723.

On to `COCC1(CO)C(=O)C2CCN1CC2` (configuration not stated) [PRIMA-1MET] + Cc1nc(NC(=O)N2CCC[C@H]2C(N)=O)sc1-c1ccnc(C(C)(C)C(F)(F)F)c1 [Alpelisib] (partner 2 µM), for which the relative viability stood at 1.17.

`COCC1(CO)C(=O)C2CCN1CC2` (configuration not stated) [PRIMA-1MET] + C[C@@H](Oc1cc(-c2cnn(C3CCNCC3)c2)cnc1N)c1c(Cl)ccc(F)c1Cl [Crizotinib] (partner 1 µM) displayed a relative viability of 0.741.

Staying with this test, now noted: first compound 6.325 µM.
As to `COCC1(CO)C(=O)C2CCN1CC2` (configuration not stated) [PRIMA-1MET] + O=C(CCCCCCC(=O)Nc1ccccc1)NO [Vorinostat] (partner 1 µM), the relative viability was 0.617.
